# In patent US20120122860A1, “SOLID FORMS OF SULFONAMIDES AND AMINO ACIDS” (Plexxikon, Inc., priority 2009, published 2012):
# How the values were obtained:
# Src = Src (Homo sapiens, UniProt P12931); assay: Kinase activity assay, Src
# MAP4K4 = MAP4K4 (Homo sapiens, UniProt O95819); assay: Kinase activity assay, MAP4K4
# Kdr = Kdr (Homo sapiens, UniProt P35968); assay: Kinase activity assay, Kdr
# B-Raf V600E = B-Raf V600E (Homo sapiens, UniProt P15056, V600E); assay: Kinase activity assay, B-Raf V600E; type: biochemical; settings: read-out: activity toward kinase B-Raf V600E, IC50
# C-Raf = C-Raf (Homo sapiens, UniProt P04049); assay: Kinase activity assay, C-Raf
# A-Raf = target: T1, A-Raf (Homo sapiens, UniProt P10398); assay: Kinase activity assay, A-Raf
# T1 sequence (P10398 1-606): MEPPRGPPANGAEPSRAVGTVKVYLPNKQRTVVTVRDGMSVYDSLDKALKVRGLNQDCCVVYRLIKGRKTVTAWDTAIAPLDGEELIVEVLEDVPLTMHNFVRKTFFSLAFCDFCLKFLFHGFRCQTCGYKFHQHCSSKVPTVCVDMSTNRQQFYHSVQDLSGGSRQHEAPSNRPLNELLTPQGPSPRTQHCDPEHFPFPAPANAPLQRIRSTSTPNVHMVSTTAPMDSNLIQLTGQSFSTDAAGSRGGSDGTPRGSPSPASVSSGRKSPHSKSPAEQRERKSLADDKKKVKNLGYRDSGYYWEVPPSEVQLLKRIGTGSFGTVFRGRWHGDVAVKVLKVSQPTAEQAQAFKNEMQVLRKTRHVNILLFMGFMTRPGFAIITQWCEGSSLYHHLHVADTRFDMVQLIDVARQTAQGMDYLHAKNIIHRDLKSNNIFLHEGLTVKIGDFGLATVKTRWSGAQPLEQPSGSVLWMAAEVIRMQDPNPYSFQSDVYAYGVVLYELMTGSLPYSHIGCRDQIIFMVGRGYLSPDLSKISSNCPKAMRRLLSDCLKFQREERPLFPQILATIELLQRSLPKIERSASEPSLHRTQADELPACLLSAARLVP
# B-Raf = B-Raf (Homo sapiens, UniProt P15056); assay: Kinase activity assay, B-Raf; type: biochemical; settings: read-out: activity toward kinase B-Raf, IC50
# Kit = Kit (Homo sapiens, UniProt P10721); assay: Kinase activity assay, Kit
# Fms = Fms (Homo sapiens, UniProt P07333); assay: Kinase activity assay, Fms
# Kit, sequence (P10721 26-976): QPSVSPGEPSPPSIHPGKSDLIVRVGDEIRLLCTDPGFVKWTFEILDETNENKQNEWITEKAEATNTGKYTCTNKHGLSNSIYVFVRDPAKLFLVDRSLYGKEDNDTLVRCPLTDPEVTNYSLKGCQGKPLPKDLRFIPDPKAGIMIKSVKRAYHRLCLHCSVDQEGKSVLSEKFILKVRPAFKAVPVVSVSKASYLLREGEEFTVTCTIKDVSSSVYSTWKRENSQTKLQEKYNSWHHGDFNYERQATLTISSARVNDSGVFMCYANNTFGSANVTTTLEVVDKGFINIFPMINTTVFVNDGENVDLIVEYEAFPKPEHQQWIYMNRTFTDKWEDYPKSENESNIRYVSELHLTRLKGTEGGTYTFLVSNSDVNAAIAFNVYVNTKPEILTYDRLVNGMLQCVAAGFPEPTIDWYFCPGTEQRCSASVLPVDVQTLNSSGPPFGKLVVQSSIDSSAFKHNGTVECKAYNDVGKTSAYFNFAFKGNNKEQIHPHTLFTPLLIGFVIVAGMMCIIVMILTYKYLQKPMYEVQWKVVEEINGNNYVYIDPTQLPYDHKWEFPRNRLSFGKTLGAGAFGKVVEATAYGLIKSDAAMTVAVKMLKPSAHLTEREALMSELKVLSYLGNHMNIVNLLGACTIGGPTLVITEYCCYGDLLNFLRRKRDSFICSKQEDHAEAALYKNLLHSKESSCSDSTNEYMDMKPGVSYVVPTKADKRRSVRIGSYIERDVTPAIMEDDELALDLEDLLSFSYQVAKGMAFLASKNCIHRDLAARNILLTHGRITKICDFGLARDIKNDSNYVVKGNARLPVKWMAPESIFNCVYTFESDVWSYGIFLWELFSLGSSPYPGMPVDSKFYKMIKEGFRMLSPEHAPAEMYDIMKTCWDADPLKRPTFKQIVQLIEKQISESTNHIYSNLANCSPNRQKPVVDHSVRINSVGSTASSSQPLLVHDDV
# MAP4K4, sequence (O95819 whole entry): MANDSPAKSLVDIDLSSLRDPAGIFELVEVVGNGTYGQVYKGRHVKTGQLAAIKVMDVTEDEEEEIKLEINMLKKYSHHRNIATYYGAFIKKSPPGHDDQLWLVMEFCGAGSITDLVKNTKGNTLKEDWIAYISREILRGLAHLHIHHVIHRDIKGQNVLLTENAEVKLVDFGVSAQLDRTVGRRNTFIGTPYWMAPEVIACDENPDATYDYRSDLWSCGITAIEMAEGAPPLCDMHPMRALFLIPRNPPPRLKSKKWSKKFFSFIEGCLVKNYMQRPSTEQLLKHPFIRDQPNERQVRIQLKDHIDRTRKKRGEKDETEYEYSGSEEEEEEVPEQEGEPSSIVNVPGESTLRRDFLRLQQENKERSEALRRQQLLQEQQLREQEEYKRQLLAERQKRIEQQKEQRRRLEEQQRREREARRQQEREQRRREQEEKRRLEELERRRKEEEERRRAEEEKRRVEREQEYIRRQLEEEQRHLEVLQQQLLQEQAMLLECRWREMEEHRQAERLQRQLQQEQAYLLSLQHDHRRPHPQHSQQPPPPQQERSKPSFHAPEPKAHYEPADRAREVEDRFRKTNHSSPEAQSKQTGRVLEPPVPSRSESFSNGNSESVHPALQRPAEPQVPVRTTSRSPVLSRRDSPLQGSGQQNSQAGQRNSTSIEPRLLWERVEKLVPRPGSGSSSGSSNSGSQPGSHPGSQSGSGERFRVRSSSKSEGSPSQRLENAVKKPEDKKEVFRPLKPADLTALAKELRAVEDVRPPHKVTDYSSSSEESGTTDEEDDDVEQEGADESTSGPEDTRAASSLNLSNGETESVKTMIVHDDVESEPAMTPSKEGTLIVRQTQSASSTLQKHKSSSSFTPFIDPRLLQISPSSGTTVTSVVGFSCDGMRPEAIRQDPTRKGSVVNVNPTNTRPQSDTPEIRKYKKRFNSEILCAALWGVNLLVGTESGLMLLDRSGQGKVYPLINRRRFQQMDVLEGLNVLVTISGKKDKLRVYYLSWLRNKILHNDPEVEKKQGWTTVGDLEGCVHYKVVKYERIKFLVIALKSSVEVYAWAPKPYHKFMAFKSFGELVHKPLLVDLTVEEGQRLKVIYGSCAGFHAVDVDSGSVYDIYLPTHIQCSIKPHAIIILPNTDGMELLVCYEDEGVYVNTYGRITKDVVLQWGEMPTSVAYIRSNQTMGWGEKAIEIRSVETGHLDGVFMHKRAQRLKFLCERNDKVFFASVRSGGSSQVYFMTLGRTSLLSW
# C-Raf, sequence (P04049 whole entry): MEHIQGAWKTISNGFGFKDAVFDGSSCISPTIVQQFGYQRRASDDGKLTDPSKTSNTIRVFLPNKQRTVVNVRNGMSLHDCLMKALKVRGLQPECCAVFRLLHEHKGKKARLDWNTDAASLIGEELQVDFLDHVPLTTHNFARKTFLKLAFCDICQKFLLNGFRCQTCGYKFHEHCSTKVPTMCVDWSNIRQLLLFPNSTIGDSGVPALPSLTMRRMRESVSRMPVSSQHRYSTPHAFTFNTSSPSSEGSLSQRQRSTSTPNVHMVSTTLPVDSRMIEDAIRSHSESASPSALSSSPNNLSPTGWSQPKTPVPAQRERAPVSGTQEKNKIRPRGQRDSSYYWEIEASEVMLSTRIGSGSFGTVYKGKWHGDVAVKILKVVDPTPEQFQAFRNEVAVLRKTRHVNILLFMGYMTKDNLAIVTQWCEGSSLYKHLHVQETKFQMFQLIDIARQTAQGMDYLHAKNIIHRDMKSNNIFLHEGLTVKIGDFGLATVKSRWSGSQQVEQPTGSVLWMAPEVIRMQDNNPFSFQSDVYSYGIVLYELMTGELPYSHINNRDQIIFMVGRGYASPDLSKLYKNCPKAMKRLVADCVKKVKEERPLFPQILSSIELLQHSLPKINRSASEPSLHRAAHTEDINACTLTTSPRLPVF
# Src, sequence (P12931 whole entry): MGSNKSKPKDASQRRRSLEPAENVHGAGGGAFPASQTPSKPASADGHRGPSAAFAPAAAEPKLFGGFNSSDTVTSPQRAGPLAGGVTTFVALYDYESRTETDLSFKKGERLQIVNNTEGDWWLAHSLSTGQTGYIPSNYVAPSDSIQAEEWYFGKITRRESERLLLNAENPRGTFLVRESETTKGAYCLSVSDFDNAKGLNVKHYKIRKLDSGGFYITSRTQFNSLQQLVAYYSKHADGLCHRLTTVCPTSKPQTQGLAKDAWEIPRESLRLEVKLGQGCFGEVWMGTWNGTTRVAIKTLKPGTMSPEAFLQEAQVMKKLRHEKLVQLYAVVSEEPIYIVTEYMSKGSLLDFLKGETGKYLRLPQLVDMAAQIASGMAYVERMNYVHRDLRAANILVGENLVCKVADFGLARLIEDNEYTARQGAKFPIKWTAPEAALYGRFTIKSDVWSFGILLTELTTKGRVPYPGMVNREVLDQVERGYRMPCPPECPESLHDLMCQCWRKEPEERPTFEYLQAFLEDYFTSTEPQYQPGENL
# Kdr, sequence (P35968 20-1356): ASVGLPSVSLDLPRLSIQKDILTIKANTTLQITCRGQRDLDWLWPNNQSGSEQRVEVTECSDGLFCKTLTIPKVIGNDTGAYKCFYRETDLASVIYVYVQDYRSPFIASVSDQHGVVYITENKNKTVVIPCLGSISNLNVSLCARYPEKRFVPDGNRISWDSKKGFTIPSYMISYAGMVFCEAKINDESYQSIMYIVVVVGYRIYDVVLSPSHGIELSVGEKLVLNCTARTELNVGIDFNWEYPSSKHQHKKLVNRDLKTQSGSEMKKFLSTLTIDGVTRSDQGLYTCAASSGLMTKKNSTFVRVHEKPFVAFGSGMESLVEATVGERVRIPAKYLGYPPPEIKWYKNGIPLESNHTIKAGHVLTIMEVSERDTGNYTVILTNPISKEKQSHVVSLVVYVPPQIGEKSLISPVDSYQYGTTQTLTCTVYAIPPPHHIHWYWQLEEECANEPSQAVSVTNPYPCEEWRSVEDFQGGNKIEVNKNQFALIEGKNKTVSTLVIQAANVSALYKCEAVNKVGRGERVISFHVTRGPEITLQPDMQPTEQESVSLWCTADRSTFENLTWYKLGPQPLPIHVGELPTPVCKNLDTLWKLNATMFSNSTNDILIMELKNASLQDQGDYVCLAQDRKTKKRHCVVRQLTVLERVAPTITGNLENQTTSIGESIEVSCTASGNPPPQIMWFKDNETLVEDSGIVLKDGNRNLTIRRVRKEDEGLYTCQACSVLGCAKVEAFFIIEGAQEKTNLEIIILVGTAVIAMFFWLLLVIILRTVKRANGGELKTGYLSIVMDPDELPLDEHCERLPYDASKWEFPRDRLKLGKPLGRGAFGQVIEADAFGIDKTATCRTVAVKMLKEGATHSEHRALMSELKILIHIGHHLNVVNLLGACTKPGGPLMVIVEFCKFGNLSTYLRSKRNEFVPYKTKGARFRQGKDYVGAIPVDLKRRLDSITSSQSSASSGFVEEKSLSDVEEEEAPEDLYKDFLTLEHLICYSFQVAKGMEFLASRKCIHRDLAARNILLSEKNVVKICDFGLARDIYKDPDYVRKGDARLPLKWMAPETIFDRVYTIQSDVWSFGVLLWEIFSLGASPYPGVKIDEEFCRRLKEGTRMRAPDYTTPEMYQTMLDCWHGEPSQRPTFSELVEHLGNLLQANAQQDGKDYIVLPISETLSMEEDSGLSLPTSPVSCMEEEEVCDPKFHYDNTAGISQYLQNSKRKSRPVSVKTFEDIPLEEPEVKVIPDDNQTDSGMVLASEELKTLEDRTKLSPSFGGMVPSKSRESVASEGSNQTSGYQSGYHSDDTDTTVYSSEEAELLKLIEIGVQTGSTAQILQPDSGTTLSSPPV
IC50 (Src) [µM],IC50 (MAP4K4) [µM],IC50 (Kdr) [µM],IC50 (B-Raf V600E) [µM],IC50 (C-Raf) [µM],IC50 (A-Raf) [µM],IC50 (B-Raf) [µM],IC50 (Kit) [µM],IC50 (Fms) [µM],SMILES
≤ 10,≤ 10,≤ 10,≤ 10,≤ 10,≤ 10,–,–,–,"O=C(c1c(F)ccc(NS(=O)(=O)c2ncn[nH]2)c1F)c1c[nH]c2ncc(Cl)cc12 [P-2062, 2H-[1,2,4]Triazole-3-sulfonic acid [3-(5-chloro-1H-pyrrolo[2,3-b]pyridine-3-carbonyl)-2,4-difluoro-phenyl]-amide]"
≤ 10,≤ 10,–,≤ 10,≤ 10,≤ 10,≤ 10,–,–,"N#Cc1cnc2[nH]cc(C(=O)c3c(F)ccc(NS(=O)(=O)c4ccccn4)c3F)c2c1 [P-2063, Pyridine-2-sulfonic acid [3-(5-cyano-1H-pyrrolo[2,3-b]pyridine-3-carbonyl)-2,4-difluoro-phenyl]-amide]"
–,≤ 10,≤ 10,≤ 10,≤ 10,≤ 10,–,–,–,"N#Cc1cnc2[nH]cc(C(=O)c3c(F)ccc(NS(=O)(=O)c4ncn[nH]4)c3F)c2c1 [P-2064, 2H-[1,2,4]Triazole-3-sulfonic acid [3-(5-cyano-1H-pyrrolo[2,3-b]pyridine-3-carbonyl)-2,4-difluoro-phenyl]-amide]"
≤ 10,≤ 10,≤ 10,≤ 10,≤ 10,≤ 10,–,–,–,"Cc1cnc2[nH]cc(C(=O)c3c(F)ccc(NS(=O)(=O)c4ncn[nH]4)c3F)c2c1 [P-2065, 2H-[1,2,4]Triazole-3-sulfonic acid [2,4-difluoro-3-(5-methyl-1H-pyrrolo[2,3-b]pyridine-3-carbonyl)-phenyl]-amide]"
–,≤ 10,≤ 10,≤ 10,≤ 10,≤ 10,≤ 10,–,–,"O=C(c1c(F)ccc(NS(=O)(=O)c2ncn[nH]2)c1F)c1c[nH]c2nccc(Cl)c12 [P-2066, 2H-[1,2,4]Triazole-3-sulfonic acid [3-(4-chloro-1H-pyrrolo[2,3-b]pyridine-3-carbonyl)-2,4-difluoro-phenyl]-amide]"
≤ 10,≤ 10,–,≤ 10,≤ 10,≤ 10,≤ 10,–,–,"Cc1cnc2[nH]cc(C(=O)c3c(F)ccc(NS(=O)(=O)c4cccnc4)c3F)c2c1 [P-2069, Pyridine-3-sulfonic acid [2,4-difluoro-3-(5-methyl-1H-pyrrolo[2,3-b]pyridine-3-carbonyl)-phenyl]-amide]"
–,–,≤ 10,–,≤ 10,≤ 10,≤ 10,≤ 10,≤ 10,"O=C(c1cc(NS(=O)(=O)c2cccc(OC(F)(F)F)c2)ccc1F)c1c[nH]c2ncccc12 [P-2117, N-[4-Fluoro-3-(1H-pyrrolo[2,3-b]pyridine-3-carbonyl)-phenyl]-3-trifluoromethoxy-benzenesulfonamide]"
–,≤ 10,≤ 10,≤ 10,≤ 10,≤ 10,≤ 10,≤ 10,–,"CCCS(=O)(=O)Nc1ccc(F)c(C(=O)c2c[nH]c3ncc(C(F)(F)F)cc23)c1F [P-2182, Propane-1-sulfonic acid [2,4-difluoro-3-(5-trifluoromethyl-1H-pyrrolo[2,3-b]pyridine-3-carbonyl)-phenyl]-amide]"
–,≤ 10,–,≤ 10,≤ 10,≤ 10,≤ 10,–,–,"CCCS(=O)(=O)Nc1ccc(F)c(C(=O)c2c[nH]c3ncc(CN4CCOCC4)cc23)c1F [P-2244, Propane-1-sulfonic acid [2,4-difluoro-3-(5-morpholin-4-ylmethyl-1H-pyrrolo[2,3-b]pyridine-3-carbonyl)-phenyl]-amide]"
≤ 10,–,≤ 10,≤ 10,≤ 10,≤ 10,≤ 10,≤ 10,≤ 10,"COc1cnc2[nH]cc(C(=O)c3c(F)ccc(NS(=O)(=O)C(C)C)c3F)c2c1 [P-2273, Propane-2-sulfonic acid [2,4-difluoro-3-(5-methoxy-1H-pyrrolo[2,3-b]pyridine-3-carbonyl)-phenyl]-amide]"
–,≤ 10,≤ 10,≤ 10,≤ 10,≤ 10,≤ 10,≤ 10,–,"CCS(=O)(=O)Nc1ccc(F)c(C(=O)c2c[nH]c3ncc(Cl)cc23)c1F [P-2274, Ethanesulfonic acid [3-(5-chloro-1H-pyrrolo[2,3-b]pyridine-3-carbonyl)-2,4-difluoro-phenyl]-amide]"
–,≤ 10,≤ 10,≤ 10,≤ 10,≤ 10,–,≤ 10,–,"COc1cnc2[nH]cc(C(=O)c3c(F)ccc(NS(C)(=O)=O)c3F)c2c1 [P-2288, N-[2,4-Difluoro-3-(5-methoxy-1H-pyrrolo[2,3-b]pyridine-3-carbonyl)-phenyl]-methanesulfonamide]"
–,≤ 10,≤ 10,≤ 10,≤ 10,≤ 10,–,≤ 10,–,"Cc1cnc2[nH]cc(C(=O)c3c(F)ccc(NS(C)(=O)=O)c3F)c2c1 [P-2289, N-[2,4-Difluoro-3-(5-methyl-1H-pyrrolo[2,3-b]pyridine-3-carbonyl)-phenyl]-methanesulfonamide]"
–,≤ 10,≤ 10,≤ 10,≤ 10,≤ 10,–,≤ 10,–,"CS(=O)(=O)Nc1ccc(F)c(C(=O)c2c[nH]c3ncc(Cl)cc23)c1F [P-2291, N-[3-(5-Chloro-1H-pyrrolo[2,3-b]pyridine-3-carbonyl)-2,4-difluoro-phenyl]-methanesulfonamide]"
≤ 10,–,≤ 10,≤ 10,≤ 10,≤ 10,≤ 10,≤ 10,≤ 10,"CC(C)CS(=O)(=O)Nc1ccc(F)c(C(=O)c2c[nH]c3ncc(Cl)cc23)c1F [P-2304, 2-Methyl-propane-1-sulfonic acid [3-(5-chloro-1H-pyrrolo[2,3-b]pyridine-3-carbonyl)-2,4-difluoro-phenyl]-amide]"
≤ 10,≤ 10,≤ 10,≤ 10,≤ 10,≤ 10,–,–,–,"Cc1cnc2[nH]cc(C(=O)c3c(F)ccc(NS(=O)(=O)CC(F)(F)F)c3F)c2c1 [P-2337, 2,2,2-Trifluoro-ethanesulfonic acid [2,4-difluoro-3-(5-methyl-1H-pyrrolo[2,3-b]pyridine-3-carbonyl)-phenyl]-amide]"
≤ 10,–,≤ 10,≤ 10,≤ 10,≤ 10,≤ 10,≤ 10,≤ 10,"O=C(c1c(F)ccc(NS(=O)(=O)C(F)(F)F)c1F)c1c[nH]c2ncc(-c3ccc(Cl)cc3)cc12 [P-2343, N-{3-[5-(4-Chloro-phenyl)-1H-pyrrolo[2,3-b]pyridine-3-carbonyl]-2,4-difluoro-phenyl}-C,C,C-trifluoro-methanesulfonamide]"
–,≤ 10,≤ 10,≤ 10,≤ 10,≤ 10,–,–,–,"Cc1cnc2[nH]cc(C(=O)c3c(F)ccc(NS(=O)(=O)C4CCC4)c3F)c2c1 [P-2362, Cyclobutanesulfonic acid [2,4-difluoro-3-(5-methyl-1H-pyrrolo[2,3-b]pyridine-3-carbonyl)-phenyl]-amide]"
–,≤ 10,–,≤ 10,≤ 10,≤ 10,≤ 10,≤ 10,–,"N#Cc1cnc2[nH]cc(C(=O)c3c(F)ccc(NS(=O)(=O)C4CCCCC4)c3F)c2c1 [P-2366, Cyclohexanesulfonic acid [3-(5-cyano-1H-pyrrolo[2,3-b]pyridine-3-carbonyl)-2,4-difluoro-phenyl]-amide]"
≤ 10,–,≤ 10,≤ 10,–,≤ 10,–,≤ 10,≤ 10,"O=C(c1c(F)ccc(NS(=O)(=O)N2CCOCC2)c1F)c1c[nH]c2ncc(Cl)cc12 [P-2390, Morpholine-4-sulfonic acid [3-(5-chloro-1H-pyrrolo[2,3-b]pyridine-3-carbonyl)-2,4-difluoro-phenyl]-amide]"
